# Laboratory results reported in patent US5646042A, “C-myb targeted ribozymes” (Ribozyme Pharmaceuticals, Inc., priority 1995, dated 1997).
# Test system: rat smooth muscle cells
# Assay: Serum-stimulated rat smooth muscle cell proliferation (BrdU incorporation)
# Format: cell-based
# Conditions: for % cell proliferation: no ribozyme; for augmentation of ribozyme inhibition of smooth muscle cell proliferation: 0.2 μM ribozyme 575 12/12 complexed with DMRIE/DOPE at 1:1 charge ratio
# Description: The ribozymes that cleaved c-myb RNA described above were assayed for their effect on smooth muscle cell proliferation. Rat vascular smooth muscle cells were isolated and cultured as follows. Aortas from adult Sprague-Dawley rats were dissected, connective tissue was removed under a dissecting microscope, and 1 mm^2 pieces of the vessel were placed, intimal side up, in a Petri dish in Modified Eagle's Medium (MEM) with the following additives: 10% FBS, 2% tryptose phosphate broth, 1% penicillin/streptomycin and 2 mM L-Glutamine. The smooth muscle cells were allowed to migrate and grow to confluence over a 3-4 week period. These primary cells were frozen and subsequent passages were grown at 37° C. in 5% CO2 in Dulbecco's modified Eagle's medium (DMEM), 10% fetal bovine serum (FBS), and the following additives: 2 mM L-Glutamine, 1% penicillin/streptomycin, 1 mM sodium pyruvate, non-essential amino acids (0.1 mM of each amino acid), and 20 mM Hepes pH 7.4. Cells passed four to six times were used in proliferation assays. For the cell proliferation assays, 24-well tissue culture plates were prepared by coating the wells with 0.2% gelatin and washing once with phosphate-buffered saline (PBS). RASMC were inoculated at 1×10^4 cells per well in 1 ml of DMEM plus 10% FBS and additives and incubated for 24 hours. The cells were subconfluent when plated at this density. The cells were serum-starved by removing the medium, washing once with PBS, and incubating 48-72 hours in DMEM containing 0.5% FBS plus additives.
# Serum-starved smooth muscle cells were washed twice with PBS, and the RNA/lipid complex was added. The plates were incubated for 4 hours at 37° C. The medium was then removed and DMEM containing 10% FBS, additives and 10 μM bromodeoxyuridine (BrdU) was added. In some wells, FBS was omitted to determine the baseline of unstimulated proliferation. The plates were incubated at 37° C. for 20-24 hours, fixed with 0.3% H2 O2 in 100% methanol, and stained for BrdU incorporation by standard methods. In this procedure, cells that have proliferated and incorporated BrdU stain brown; non-proliferating cells are counter-staineda light purple. Both BrdU positive and BrdU negative cells were counted under the microscope. 300-600 total cells per well were counted. In the following experiments, the percentage of the total cells that have incorporated BrdU (% cell proliferation) is presented. […] Percent inhibition then is calculated from the % cell proliferation values as follows: % inhibition=100-100((Ribozyme-0% serum)/(Control-0% serum)).
# These include, but are not limited to, ammonium chloride, carbonyl cyanide p-trifluoromethoxy phenyl hydrazone (FCCP), chloroquine, monensin, colchicine, and viral particles (Cotten, M. et al., 1990, Proc. Natl. Acad. Sci. USA, 87, 4033-4037; Cotten, M. et al., 1993, J. Virol., 67, 3777-3785; Cotten, M. et al., 1992, Proc. Natl. Acad. Sci USA, 89, 6094-6098; Cristiano, R. J. et al., 1993, Proc. Natl. Acad. Sci. U S A, 90, 2122-6; Cudel, D. T. et al., 1991, Proc. Nat. Acad. Sci., USA, 88, 8850-8854; Ege, T. et al., 1984, Exp. Cell Res., 155, 9-16; Harris, C. E. et al., 1993, Am. J. Respir. Cell Mol. Biol., 9, 441-7; Seth, P. et al., 1994, J. Virol., 68, 933-40; Zenke, M. et al., 1990, Proc. Natl. Acad. Sci. USA, 87, 3655-3659). […] To determine whether such agents may augment the functional delivery of RNA and ribozymes to smooth muscle cells, the effects of chloroquine on ribozyme inhibition of smooth muscle cell proliferation were assessed. […]
structure (smiles),measurement,setting,value
CCN(CC)CCCC(C)Nc1ccnc2cc(Cl)ccc12 (centres unmarked) [chloroquine],% cell proliferation,"10 μM chloroquine added upon stimulation, stimulation with 10% serum",80.5±1.5%
same,augmentation of ribozyme inhibition of smooth muscle cell proliferation,10 μM chloroquine,two- to three-fold
same,augmentation of ribozyme inhibition of smooth muscle cell proliferation,"10 μM chloroquine, listed as Chloroquine",2- to 3 fold
same,effect of chloroquine on untreated cells (proliferation),"10 μM chloroquine, cells without ribozyme",no effect
same,% cell proliferation,"10 μM chloroquine, unstimulated cells",7±0.5%
